target: T1, human Edg-1 (S1P1) (Homo sapiens, UniProt P21453); assay: S1P1 binding assay: inhibition of [33P]-S1P binding to membrane fraction of HEK-293 cells transferred with the human Edg-1 (S1P1) gene; conditions: test compound 10 μM; inhibition of [33P]-S1P binding, membrane fraction
T1 construct: expressed in transfected cells; host or cells: HEK-293
Summary of the method: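 Membranes from S1P1-transfected HEK-293 cells incubated 1 h at 30° C in pH 7.4 Tris buffer with fatty acid-free BSA, 0.1 nM [33P]-S1P and test compound (0.1% DMSO). Filter-bound radioactivity was counted; inhibition corrected for binding to untransfected-cell membranes, and IC50 derived from concentration series.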

T1 sequence (P21453 whole entry): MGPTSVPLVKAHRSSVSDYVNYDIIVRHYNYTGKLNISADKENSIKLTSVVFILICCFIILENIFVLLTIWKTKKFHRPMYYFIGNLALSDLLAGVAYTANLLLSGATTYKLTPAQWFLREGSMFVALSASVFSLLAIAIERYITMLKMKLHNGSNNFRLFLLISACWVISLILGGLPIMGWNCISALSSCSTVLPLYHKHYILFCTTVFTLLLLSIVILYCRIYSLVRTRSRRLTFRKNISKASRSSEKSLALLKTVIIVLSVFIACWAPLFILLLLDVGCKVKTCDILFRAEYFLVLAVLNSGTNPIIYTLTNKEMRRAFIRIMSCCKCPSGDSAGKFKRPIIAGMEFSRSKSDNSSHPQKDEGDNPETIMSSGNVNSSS

Row | inhibition at 10 µM [%] | SMILES
1 | 84 | CCn1c(Oc2cccc(N3CCN(C)CC3)c2)nnc1[C@@H](C)NS(=O)(=O)c1ccccc1 [Compound 498]
2 | 109 | CCn1c(Oc2cccc(N3CCN(C)CC3)c2)nnc1[C@@H](C)NS(=O)(=O)c1ccc(Br)cc1 [Compound 499]
3 | 90.2 | CCn1c(Oc2cccc(N3CCN(C)CC3)c2)nnc1[C@@H](C)NS(=O)(=O)c1ccc(C(C)(C)C)cc1 [Compound 500]
4 | 61.7 | CCn1c(Oc2cccc(N3CCN(C)CC3)c2)nnc1[C@@H](C)NS(=O)(=O)c1ccccc1Br [Compound 501]
5 | 75.5 | CCCCOc1ccc(S(=O)(=O)N[C@H](C)c2nnc(Oc3cccc(N4CCN(C)CC4)c3)n2CC)cc1 [Compound 502]
6 | 116 | CCn1c(Oc2cccc(N3CCN(C)CC3)c2)nnc1[C@@H](C)NS(=O)(=O)c1cccc(Br)c1 [Compound 503]
7 | 53.5 | CCn1c(Oc2cccc(N3CCN(C)CC3)c2)nnc1[C@@H](C)NS(=O)(=O)c1ccc(Br)cc1OC(F)(F)F [Compound 504]
8 | 108 | CCn1c(Oc2cccc(N3CCN(C)CC3)c2)nnc1[C@@H](C)NS(=O)(=O)c1ccc(Cl)cc1 [Compound 505]
9 | 83.2 | CCn1c(Oc2cccc(N3CCN(C)CC3)c2)nnc1[C@@H](C)NS(=O)(=O)c1ccccc1C#N [Compound 506]
10 | 84.8 | CCn1c(Oc2cccc(N3CCN(C)CC3)c2)nnc1[C@@H](C)NS(=O)(=O)c1ccc(Cl)c2nonc12 [Compound 507]
11 | 87 | CCn1c(Oc2cccc(N3CCN(C)CC3)c2)nnc1[C@@H](C)NS(=O)(=O)c1sc2ccc(Cl)cc2c1C [Compound 509]
12 | 114 | CCn1c(Oc2cccc(N3CCN(C)CC3)c2)nnc1[C@@H](C)NS(=O)(=O)c1cc(C)c(Cl)cc1C [Compound 510]
13 | 98.6 | CCn1c(Oc2cccc(N3CCN(C)CC3)c2)nnc1[C@@H](C)NS(=O)(=O)c1cc(Cl)ccc1Cl [Compound 511]
14 | 60.7 | CCn1c(Oc2cccc(N3CCN(C)CC3)c2)nnc1[C@@H](C)NS(=O)(=O)c1c(Cl)cccc1Cl [Compound 512]
15 | 96.6 | CCn1c(Oc2cccc(N3CCN(C)CC3)c2)nnc1[C@@H](C)NS(=O)(=O)c1ccc(OC)c(OC)c1 [Compound 513]
16 | 109 | CCc1ccc(S(=O)(=O)N[C@H](C)c2nnc(Oc3cccc(N4CCN(C)CC4)c3)n2CC)cc1 [Compound 515]
17 | 107 | CCn1c(Oc2cccc(N3CCN(C)CC3)c2)nnc1[C@@H](C)NS(=O)(=O)c1ccc(F)cc1 [Compound 516]
18 | 69.6 | CCn1c(Oc2cccc(N3CCN(C)CC3)c2)nnc1[C@@H](C)NS(=O)(=O)c1c(C)cc(C)cc1C [Compound 517]
19 | 111 | CCn1c(Oc2cccc(N3CCN(C)CC3)c2)nnc1[C@@H](C)NS(=O)(=O)c1ccc(OC)cc1 [Compound 518]
20 | 69.9 | CCn1c(Oc2cccc(N3CCN(C)CC3)c2)nnc1[C@@H](C)NS(=O)(=O)c1ccc(S(C)(=O)=O)cc1 [Compound 520]
21 | 98.4 | CCn1c(Oc2cccc(N3CCN(C)CC3)c2)nnc1[C@@H](C)NS(=O)(=O)c1cccc2ccccc12 [Compound 522]
22 | 114 | CCn1c(Oc2cccc(N3CCN(C)CC3)c2)nnc1[C@@H](C)NS(=O)(=O)CCc1cccc2ccccc12 [Compound 523]

Row | inhibition at 10 µM [%] | SMILES
23 | 83 | CCn1c(Oc2cccc(N3CCN(C)CC3)c2)nnc1[C@@H](C)NS(=O)(=O)c1c(F)c(F)c(F)c(F)c1F [Compound 524]
24 | 111 | CCn1c(Oc2cccc(N3CCN(C)CC3)c2)nnc1[C@@H](C)NS(=O)(=O)c1ccc(I)cc1 [Compound 525]
25 | 112 | CCn1c(Oc2cccc(N3CCN(C)CC3)c2)nnc1[C@@H](C)NS(=O)(=O)c1cc(Cl)c(Cl)cc1Cl [Compound 526]
26 | 52.1 | CCn1c(Oc2cccc(N3CCN(C)CC3)c2)nnc1[C@@H](C)NS(=O)(=O)c1c(C(C)C)cc(C(C)C)cc1C(C)C [Compound 527]
27 | 106 | CCn1c(Oc2cccc(N3CCN(C)CC3)c2)nnc1[C@@H](C)NS(=O)(=O)c1ccc(C)cc1 [Compound 528]
28 | 115 | CCn1c(Oc2cccc(N3CCN(C)CC3)c2)nnc1[C@@H](C)NS(=O)(=O)c1cccc(C(F)(F)F)c1 [Compound 530]
29 | 100 | CCn1c(Oc2cccc(N3CCN(C)CC3)c2)nnc1[C@@H](C)NS(=O)(=O)c1ccccc1C [Compound 531]
30 | 99.2 | CCn1c(Oc2cccc(N3CCN(C)CC3)c2)nnc1[C@@H](C)NS(=O)(=O)c1ccc(OC(F)(F)F)cc1 [Compound 532]
31 | 101 | CCn1c(Oc2cccc(N3CCN(C)CC3)c2)nnc1[C@@H](C)NS(=O)(=O)c1cccc(C)c1 [Compound 534]
32 | 50.3 | CCn1c(Oc2cccc(N3CCN(C)CC3)c2)nnc1[C@@H](C)NS(=O)(=O)c1ccc2c(c1)CN(C(=O)C(F)(F)F)CC2 [Compound 536]
33 | 96.7 | CCn1c(Oc2cccc(N3CCN(C)CC3)c2)nnc1[C@@H](C)NS(=O)(=O)c1cc(C)ccc1C [Compound 537]
34 | 97.1 | CCn1c(Oc2cccc(N3CCN(C)CC3)c2)nnc1[C@@H](C)NS(=O)(=O)c1ccc(-c2csnn2)s1 [Compound 538]
35 | 64.3 | CCn1c(Oc2cccc(N3CCN(C)CC3)c2)nnc1[C@@H](C)NS(=O)(=O)c1c(C)nn(C)c1Cl [Compound 540]
36 | 65.5 | CCn1c(Oc2cccc(N3CCN(C)CC3)c2)nnc1[C@@H](C)NS(=O)(=O)c1c(C)noc1C [Compound 541]
37 | 50.1 | CCn1c(Oc2cccc(N3CCN(C)CC3)c2)nnc1[C@@H](C)NS(=O)(=O)c1c(Cl)ccc2nonc12 [Compound 542]
38 | 112 | CCn1c(Oc2cccc(N3CCN(C)CC3)c2)nnc1[C@@H](C)NS(=O)(=O)c1ccc(C(=O)OC)n1C [Compound 543]
39 | 53.9 | CCn1c(Oc2cccc(N3CCN(C)CC3)c2)nnc1[C@@H](C)NS(=O)(=O)c1c(C)nn(C)c1C [Compound 544]
40 | 50.7 | CCn1c(Oc2cccc(N3CCN(C)CC3)c2)nnc1[C@@H](C)NS(=O)(=O)c1ccccc1C(=O)OC [Compound 545]
41 | 55.8 | CCn1c(Oc2cccc(N3CCN(C)CC3)c2)nnc1[C@@H](C)NS(=O)(=O)c1ccccc1C(F)(F)F [Compound 546]
42 | 96.7 | CCCc1ccc(S(=O)(=O)N[C@H](C)c2nnc(Oc3cccc(N4CCN(C)CC4)c3)n2CC)cc1 [Compound 548]
43 | 89.2 | CCn1c(Oc2cccc(N3CCN(C)CC3)c2)nnc1[C@@H](C)NS(=O)(=O)c1c(C)c(C)cc(C)c1C [Compound 549]
44 | 104 | CCn1c(Oc2cccc(N3CCN(C)CC3)c2)nnc1[C@@H](C)NS(=O)(=O)c1cccc(Cl)c1Cl [Compound 550]

Row | inhibition at 10 µM [%] | SMILES
45 | 76.1 | CCn1c(Oc2cccc(N3CCN(C)CC3)c2)nnc1[C@@H](C)NS(=O)(=O)c1c(C)cccc1Cl [Compound 551]
46 | 67.2 | CCn1c(Oc2cccc(N3CCN(C)CC3)c2)nnc1[C@@H](C)NS(=O)(=O)c1ccccc1Cl [Compound 552]
47 | 107 | CCn1c(Oc2cccc(N3CCN(C)CC3)c2)nnc1[C@@H](C)NS(=O)(=O)c1cc(C(F)(F)F)cc(C(F)(F)F)c1 [Compound 553]
48 | 116 | CCn1c(Oc2cccc(N3CCN(C)CC3)c2)nnc1[C@@H](C)NS(=O)(=O)c1cc(Cl)cc(Cl)c1 [Compound 554]
49 | 102 | CCn1c(Oc2cccc(N3CCN(C)CC3)c2)nnc1[C@@H](C)NS(=O)(=O)c1cccc(Cl)c1C [Compound 555]
50 | 105 | CCn1c(Oc2cccc(N3CCN(C)CC3)c2)nnc1[C@@H](C)NS(=O)(=O)c1cccc(OC)c1 [Compound 556]
51 | 107 | CCn1c(Oc2cccc(N3CCN(C)CC3)c2)nnc1[C@@H](C)NS(=O)(=O)c1cc(F)c(Br)cc1F [Compound 557]
52 | 64.8 | CCn1c(Oc2cccc(N3CCN(C)CC3)c2)nnc1[C@@H](C)NS(=O)(=O)c1c(C)cc(OC)c(C)c1C [Compound 558]
53 | 79.3 | CCn1c(Oc2cccc(N3CCN(C)CC3)c2)nnc1[C@@H](C)NS(=O)(=O)c1cc(Br)ccc1OC [Compound 559]
54 | 74.4 | CCn1c(Oc2cccc(N3CCN(C)CC3)c2)nnc1[C@@H](C)NS(=O)(=O)c1cc(F)ccc1C [Compound 560]
55 | 92.4 | CCn1c(Oc2cccc(N3CCN(C)CC3)c2)nnc1[C@@H](C)NS(=O)(=O)c1c(C)c(C)c(C)c(C)c1C [Compound 561]
56 | 93.3 | CCn1c(Oc2cccc(N3CCN(C)CC3)c2)nnc1[C@@H](C)NS(=O)(=O)c1cc(C)ccc1OC [Compound 562]
57 | 64.1 | CCn1c(Oc2cccc(N3CCN(C)CC3)c2)nnc1[C@@H](C)NS(=O)(=O)c1ccccc1OC(F)(F)F [Compound 563]
58 | 105 | CCn1c(Oc2cccc(N3CCN(C)CC3)c2)nnc1[C@@H](C)NS(=O)(=O)c1ccc(C#N)cc1 [Compound 564]
59 | 88.7 | CCn1c(Oc2cccc(N3CCN(C)CC3)c2)nnc1[C@@H](C)NS(=O)(=O)c1c(Cl)cc(Cl)cc1Cl [Compound 566]
60 | 102 | CCn1c(Oc2cccc(N3CCN(C)CC3)c2)nnc1[C@@H](C)NS(=O)(=O)c1ccc(Cl)cc1Cl [Compound 567]
61 | 71.1 | CCn1c(Oc2cccc(N3CCN(C)CC3)c2)nnc1[C@@H](C)NS(=O)(=O)c1ccc(F)cc1F [Compound 568]
62 | 75 | CCn1c(Oc2cccc(N3CCN(C)CC3)c2)nnc1[C@@H](C)NS(=O)(=O)c1cc(OC)ccc1OC [Compound 569]
63 | 77.4 | CCn1c(Oc2cccc(N3CCN(C)CC3)c2)nnc1[C@@H](C)NS(=O)(=O)c1ccc(F)cc1Cl [Compound 570]
64 | 55.7 | CCn1c(Oc2cccc(N3CCN(C)CC3)c2)nnc1[C@@H](C)NS(=O)(=O)c1ccccc1F [Compound 571]

— patent US8022091B2, “Triazole derivative” (Taisho Pharmaceutical Co., Ltd., priority 2006, dated 2011)
